The results in this text go back to patent publication US20110110860A1, “MODULATION OF LDL RECEPTOR GENE EXPRESSION WITH DOUBLE-STRANDED RNAS TARGETING THE LDL RECEPTOR GENE PROMOTER” (The Board of Regents of the University of Texas System, priority 2009, published 2011).

Series [1] has as its system LDLR. As to the kind of experiment: Western analysis of LDLR protein expression in HepG2 cells after transfection of duplex RNAs. In kind it is cell-based, human. As to conditions: for effect on LDLR expression (in words): 50 nM, western analysis. Here is the method:
Cell culture and transfection. Unmodified, 2′-O-methyl, and 2′-fluoro RNAs with two 2′-deoxythymidine bases at the 3′ end were obtained from Integrated DNA Technologies or Alnylam Pharmaceuticals. HepG2 (American Type Culture Collection (ATCC)) and fibroblast cells (GM04281; Coriell) were cultured with Minimum Essential Medium Eagle (MEM; Sigma) supplemented with 10% FBS, 1% MEM non-essential amino acids (Sigma), and 1 mM sodium pyruvate (Sigma). HuH-7 (Japanese Collection of Research Bioresources) and SW480 cells (ATCC) were cultured with Dulbecco's Modified Eagle's Medium (Sigma) supplemented with 10% FBS and 1 mM sodium pyruvate. Cells were plated in 6-well plates at 120,000 (HepG2 and HuH-7), 60,000 (fibroblast), or 150,000 (SW480) cells/well 2 days before transfection. Duplex RNAs were transfected into cells using Lipofectamine RNAiMAX (Invitrogen). Cationic lipid (2.4 μL for 50 nM dsRNA) was added to OptiMEM (Invitrogen) containing oligonucleotides and the oligonucleotide-lipid mixture (250 μL) was incubated at room temperature for 20 min. OptiMEM (for HepG2 and fibroblast) or full media (for HuH-7 and SW480) was added to a final volume of 1.25 mL and the mixture was applied to cells. Media was exchanged 1 day later with fresh supplemented media (2 mL).
(§1) Analysis of LDLR protein expression. Cells were harvested 4 days after transfection for western blotting analysis. Cells were detached from plates using cell dissociation solution (Sigma) and lysed with lysis buffer (50 mM Tris-HCl, 120 mM NaCl, 0.5% NP-40, 1 mM EDTA, 1 mM DTT, and protease inhibitor (Calbiochem)). Protein concentrations were quantified with BCA assay kit (Thermo Scientific). SDS-PAGE was performed using 7.5% Tris-HCl gels (Bio-Rad). Gels were run at 100 V for 60 min. After gel electrophoresis, proteins were transferred to nitrocellulose membrane (Hybond-C-Extra; GE Healthcare) at 100 V for 2 h. After blocking the membrane with 5% non-fat dry milk/TBST at room temperature for 1 h, the membrane was incubated with primary antibody specific for LDLR or β-actin at the following dilution ratio: anti-LDLR antibody (ab52818; 1:10,000; abcam), anti-β-actin antibody (1:20,000; Sigma). HRP-conjugated anti-rabbit (1:10,000; Jackson ImmunoResearch) or anti-mouse (1:20,000; Sigma) secondary antibody was used for visualizing proteins using SuperSignal West Pico Chemiluminescent Substrate (Thermo Scientific). Protein bands were quantified using ImageJ software.
(§2) Analysis of Interferon Responsive Genes. mRNA levels of the interferon responsive genes including OAST, OAS2, MX1, IFITM1, and ISGF3γ were measured by qRT-PCR. agRNAs (50 nM) and Poly I:C (0-100 ng/mL; Sigma) were transfected into HepG2 cells using the cationic lipid as described above. Three days after transfection, total RNAs from dsRNA-treated, poly I:C-treated, or untreated samples were isolated using TRIzol. The RNAs were treated with DNase I at 25° C. for 10 min, followed by reverse transcription reaction at 37° C. for 2 h. qPCR was performed using iTaq SYBR Supermix and primers specific for the interferon responsive genes (Interferon Response Detection Kit; System Biosciences). LDLR protein levels on Day 4 were also measured by western blot analysis.

Series [2] relates to interferon responsive genes (OAST, OAS2, MX1, IFITM1, ISGF3γ). Briefly: Analysis of interferon responsive genes by qRT-PCR in HepG2 cells. Format: cell-based, human. As to conditions: agRNAs 50 nM, poly I:C 0-100 ng/mL, HepG2, three days after transfection. As to the method:
as §2
(In general: In qPCR the cycle at which signal appears reflects the starting amount.)

The target of another series is T1, AGO2 (Homo sapiens, UniProt Q9UKV8).
T1 construct: endogenous in cells; host or cells: HepG2
Briefly: RNA immunoprecipitation (RIP) of AGO2 on the LDLR antisense transcript. Format: cell-based. As to conditions: 50 nM, HepG2 cells. As to the method: Chromatin Immunoprecipitation (ChIP)/RNA Immunoprecipitation (RIP). HepG2 cells were seeded at 1,080,000 cells in 15 cm dishes 2 days before transfection for ChIP or RIP experiments. Two dishes were treated with activating agRNAs (LDLR-24(U/U) and LDLR-28(U/U)) or mismatch controls (LDLRmm1, LDLRmm3, and LDLRmm4) (50 nM). Four days after transfection, cells were crosslinked with 1% formaldehyde. Cells were recovered by scraping and nuclei were isolated using hypotonic lysis buffer (5 mL; 10 mM Tris-HCl (pH 7.5), 10 mM NaCl, 3 mM MgCl2, 0.5% NP-40). Nuclei were lysed in lysis buffer (1 mL; 1% SDS, 10 mM EDTA, 50 mM Tris-HCl (pH 8.1), 1× Roche protease inhibitors cocktail, 40 U/mL RNasin Plus RNase Inhibitor (Promega)) and sonicated (2 pulses, 20% power, 20 sec).
The cell lysate (100 μL) was incubated overnight with antibodies in immunoprecipitation buffer (1 mL; 0.01% SDS, 1.1% Triton-X-100, 1.2 mM EDTA, 16.7 mM Tris-HCl (pH 8.1), 167 mM NaCl, and 1× Roche protease inhibitors cocktail, 40 U/mL RNasin Plus RNase Inhibitor). Monoclonal anti-RNAP II (2 μg; Millipore) and polyclonal anti-H3K27me3 (2 μg; Millipore) antibodies were used for ChIP experiments. Polyclonal anti-AGO1 (2 μg; Millipore) and polyclonal anti-AGO2 (2 μg; Millipore) antibodies were used for RIP experiments. […] PCR products were analyzed on 2.5% agarose gel and stained with ethidium bromide.

Series [3] concerns LDLR. Briefly: Combination treatment with 25-hydroxycholesterol and agRNAs (western, HepG2). Format: cell-based, human. The settings on record: 25-hydroxycholesterol 2 μM. Here is the method:
as §1
Combination treatment with 25-hydroxycholesterol and agRNAs. dsRNAs (50 nM) were transfected into HepG2 cells as described above (Day 0), and the media were exchanged one day later. […]

T1 sequence (Q9UKV8 whole entry): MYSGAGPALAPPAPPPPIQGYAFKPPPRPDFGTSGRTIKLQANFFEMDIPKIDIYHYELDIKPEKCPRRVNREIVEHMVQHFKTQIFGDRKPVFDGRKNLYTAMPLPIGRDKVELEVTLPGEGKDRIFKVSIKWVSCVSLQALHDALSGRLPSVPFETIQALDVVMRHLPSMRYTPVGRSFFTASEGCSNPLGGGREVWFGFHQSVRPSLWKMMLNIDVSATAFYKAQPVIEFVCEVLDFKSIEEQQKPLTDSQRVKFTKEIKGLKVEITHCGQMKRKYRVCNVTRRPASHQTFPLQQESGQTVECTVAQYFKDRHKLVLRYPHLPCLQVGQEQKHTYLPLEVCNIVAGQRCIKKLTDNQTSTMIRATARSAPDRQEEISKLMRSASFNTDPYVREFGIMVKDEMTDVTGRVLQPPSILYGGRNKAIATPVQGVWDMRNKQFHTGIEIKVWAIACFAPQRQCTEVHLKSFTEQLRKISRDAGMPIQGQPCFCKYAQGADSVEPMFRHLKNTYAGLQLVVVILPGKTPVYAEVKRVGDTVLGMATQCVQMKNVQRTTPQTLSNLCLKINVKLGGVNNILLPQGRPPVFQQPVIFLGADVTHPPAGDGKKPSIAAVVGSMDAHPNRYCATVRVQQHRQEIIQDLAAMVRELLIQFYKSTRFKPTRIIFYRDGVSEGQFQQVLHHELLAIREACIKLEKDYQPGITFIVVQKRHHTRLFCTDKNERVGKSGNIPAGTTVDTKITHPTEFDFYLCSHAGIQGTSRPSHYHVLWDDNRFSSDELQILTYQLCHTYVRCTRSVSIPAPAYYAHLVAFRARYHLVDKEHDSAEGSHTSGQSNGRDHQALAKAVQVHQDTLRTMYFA

With “LDLR-18: agRNA duplex; sense AAAUGACGUGGGCCCCGAGdTdT, antisense CUCGGGGCCCACGUCAUUUdTdT (sense AAAUGACGUGGGCCCCGAGDTDT; antisense CUCGGGGCCCACGUCAUUUDTDT; chemistry not fully specified)”, in the series with LDLR [1], the “effect on LDLR expression (in words)” value is “appeared to reduce gene expression”. Still for that read-out and setting: next, “LDLR-35: agRNA duplex; sense UCACAUUGAAAUGCUGUAAdTdT, antisense UUACAGCAUUUCAAUGUGAdTdT (sense UCACAUUGAAAUGCUGUAADTDT; antisense UUACAGCAUUUCAAUGUGADTDT; chemistry not fully specified)”: “appeared to reduce gene expression”. Consider “polyinosinic-polycytidylic acid [poly I:C]”, for which, in the series with LDLR [1] (any concentrations tested (0-100 ng/mL), Day 4 western), the “effect of poly I:C on LDLR expression” value is on record as “did not upregulate LDLR expression”. In addition, in series [2], the “interferon-responsive gene expression (OAST, OAS2, MX1, IFITM1, ISGF3γ)” value is reported as “substantially increases”.

As for “LDLRmm3: mismatch duplex disrupting predicted seed sequence; sense UCCAGAAAAUGACGUGGGCdTdT, antisense GCCCACGUCAUUUUCUGGAdTdT (sense UCCAGAAAAUGACGUGGGCDTDT; antisense GCCCACGUCAUUUUCUGGADTDT; chemistry not fully specified)”, the “recruitment of AGO2 to the LDLR antisense transcript” value in the series with AGO2 is given as “not”. `C[C@H](CCCC(C)(C)O)[C@H]1CC[C@H]2[C@@H]3CC=C4C[C@@H](O)CC[C@]4(C)[C@H]3CC[C@]12C` [25-hydroxycholesterol]: in the series on LDLR [3], the “baseline LDLR expression with 25-hydroxycholesterol alone” value is reported as “lowers baseline LDLR expression”. Consider “LDLRmm4: mismatch duplex, three mismatches outside seed sequence; sense UGCUGUAAAUGAGGAGCGCdTdT, antisense GCGCUCCUCAUUUACAGCAdTdT (sense UGCUGUAAAUGAGGAGCGCDTDT; antisense GCGCUCCUCAUUUACAGCADTDT; chemistry not fully specified)”, for which the “effect on LDLR expression (in words)” value in the series with LDLR [1] is “activation”. Moreover, in the series with AGO2, the “recruitment of AGO2 to the LDLR antisense transcript” value is “recruitment of AGO2”. In the case of “LDLR-65: agRNA duplex; sense CACUGCAAACUCCUCCCCCdTdT, antisense GGGGGAGGAGUUUGCAGUGdTdT (sense CACUGCAAACUCCUCCCCCDTDT; antisense GGGGGAGGAGUUUGCAGUGDTDT; chemistry not fully specified)”, the “effect on LDLR expression (in words)” value in the series on LDLR [1] was “appeared to reduce gene expression”.
